From paper PMC8815882, “Screening the pandemic response box identified benzimidazole carbamates, Olorofim and ravuconazole as promising drug candidates for the treatment of eumycetoma” (PLoS Neglected Tropical Diseases, 2022) come the findings set out here.

Read-outs that look alike come from different tables or passages of the source.

The experiment has as its system M. mycetomatis genome strain MM55. As to the kind of experiment: CLSI M38-A2 based in vitro susceptibility screening (XTT or resazurin), growth at fixed concentration. The experiment is classed as cell-based, Madurella mycetomatis. The conditions noted are these: Madurella mycetomatis; for Percent fungal survival at 100 µM: read-out: Percentage survival at 100um, 100 uM A (second replicate column). (Tetrazolium dyes change colour on reduction, which living cells bring about.)

Where [1] appears, read: 25 uM, mean of three replicates, read-out: Percentage survival at 25um, 25 uM mean.
The mark [2] stands for this setting: 25 uM, replicate A, read-out: Percentage survival at 25um, 25 um A.
Setting [3] is: 25 uM, replicate B, read-out: Percentage survival at 25um, 25 uM B.
The mark [4] stands for this setting: 25 uM, replicate C, read-out: Percentage survival at 25um, 25 uM C.
The mark [5] stands for this setting: first replicate column, read-out: Percentage survival at 100um, 100 uM A.
[6] abbreviates: mean of three replicates, read-out: Percentage survival at 100um, 100 uM mean.
The mark [7] stands for this setting: second replicate column, read-out: Percentage survival at 100um, 100 uM A.
Where [8] appears, read: third replicate column, read-out: Percentage survival at 100um, 100 uM A.
Setting [9] is: replicate 1, read-out: Percentage survival at 100um, 100 uM A (first replicate column).
The mark [10] stands for this setting: replicate 3, read-out: Percentage survival at 100um, 100 uM A (third replicate column).
Setting [11] is: 25 uM, mean of three, M. mycetomatis MM55, read-out: Percentage survival at 25um, 25 uM mean.
[12] abbreviates: 25 uM, replicate A, M. mycetomatis MM55, read-out: Percentage survival at 25um, 25 um A.
The mark [13] stands for this setting: 25 uM, replicate B, M. mycetomatis MM55, read-out: Percentage survival at 25um, 25 uM B.
[14] abbreviates: 25 uM, replicate C, M. mycetomatis MM55, read-out: Percentage survival at 25um, 25 uM C.
The mark [15] stands for this setting: mean of three, M. mycetomatis MM55, read-out: Percentage survival at 100um, 100 uM mean.
Setting [16] is: replicate 1, M. mycetomatis MM55, read-out: Percentage survival at 100um, 100 uM A (first replicate column).
Setting [17] is: replicate 2, M. mycetomatis MM55.
Setting [18] is: replicate 3, M. mycetomatis MM55, read-out: Percentage survival at 100um, 100 uM A (third replicate column).
The mark [19] stands for this setting: mean of replicates, read-out: Percentage survival at 100um, 100 uM mean.
Setting [20] is: replicate 1, read-out: Percentage survival at 100um, 100 uM A.
Setting [21] is: replicate 2, read-out: Percentage survival at 100um, 100 uM A.
Where [22] appears, read: replicate 3, read-out: Percentage survival at 100um, 100 uM A.
Setting [23] is: read-out: Percentage survival at 25um, 25 uM B.
The mark [24] stands for this setting: read-out: Percentage survival at 25um, 25 uM C.
Where [25] appears, read: read-out: Percentage survival at 25um, 25 uM mean.
Where [26] appears, read: 25 uM, mean, read-out: Percentage survival at 25um, 25 uM mean.
The mark [27] stands for this setting: mean, read-out: Percentage survival at 100um, 100 uM mean.
The mark [28] stands for this setting: replicate (first column), read-out: Percentage survival at 100um, 100 uM A.
The mark [29] stands for this setting: replicate (second column), read-out: Percentage survival at 100um, 100 uM A.
Setting [30] is: replicate (third column), read-out: Percentage survival at 100um, 100 uM A.
Setting [31] is: 25 uM, mean of replicates, read-out: Percentage survival at 25um, 25 uM mean.

On to `CC(=O)N1c2ccccc2NC2=C(C(=O)CC(C)(C)C2)C1c1ccc(OCc2ccccc2)cc1` (centres unmarked) [MMV1580503], for which the activity at 25 µM under setting [1] is 100%, the activity at 25 µM under setting [2] came to 99.4%, the activity at 25 µM under setting [3] was determined as 107% and the activity at 25 µM under setting [4] came out at 94.6%. Moreover, the activity at 100 µM is, setting by setting: under setting [5], 99.3%; under setting [6], 97.8%; under setting [7], 113%; under setting [8], 80.9%.

On to `CC(C)c1cc2c(cc1S(=O)(=O)O)[C@@]1(C)CCC[C@@](C)(C(=O)O)[C@@H]1CC2` [MMV1633675], for which the activity at 25 µM came to 79.3% under setting [1], 73.4% under setting [2], 82.6% under setting [3] and 81.8% under setting [4]. Also, the activity at 100 µM stood at 82.2% under setting [6], 91.1% under setting [9] and 81.5% under setting [10]. In addition, the Percent fungal survival at 100 µM (replicate 2) came to 74%.

As for `O=C(Nc1ccc(Cl)c(C(F)(F)F)c1)C(CCCl)C(=O)Nc1ccc(Cl)c(C(F)(F)F)c1` [MMV1580840], the activity at 25 µM is, setting by setting: under setting [11], 56.9%; under setting [12], 58.8%; under setting [13], 55.1%; under setting [14], 56.9%. For the same compound, the activity at 100 µM runs as follows: under setting [15], 36.8%; under setting [16], 0.352%; under setting [18], 51.8%. Also, the Percent fungal survival at 100 µM under setting [17] came to 58.3%.

Regarding `O=C(NC12CC3CC(CC(C3)C1)C2)c1cc2ccccc2[nH]1` [MMV1578577], the activity at 25 µM under setting [2] came to 79.8%, the activity at 25 µM under setting [23] was found to be 67.1%, the activity at 25 µM under setting [24] was found to be 75.7% and the activity at 25 µM under setting [25] came to 74.2%. For the same compound, the activity at 100 µM under setting [19] is 65.6%, the activity at 100 µM under setting [20] is 59.6%, the activity at 100 µM under setting [21] stood at 65.1% and the activity at 100 µM under setting [22] stood at 72.1%.

As to `COc1ccc(NC(=O)CC2Sc3ncnn3C2=O)cc1` (centres unmarked) [MMV1483032], the activity at 25 µM amounted to 78.4% under setting [11], 82.6% under setting [12], 81.9% under setting [13] and 70.7% under setting [14]. Besides, the activity at 100 µM runs as follows: under setting [15], 36%; under setting [16], -1.84%; under setting [18], 108%. Further, the Percent fungal survival at 100 µM under setting [17] is 1.55%.

Consider `CCCCc1ccc(C(=O)O)nc1` [MMV001726], for which the activity at 25 µM runs as follows: under setting [2], 92.6%; under setting [23], 104%; under setting [24], 77.4%; under setting [25], 91.3%. The activity at 100 µM by setting is: under setting [5], 91.2%; under setting [6], 74.3%; under setting [7], 61.7%; under setting [8], 69.8%.

With `CCCNc1ccc(S(=O)(=O)Nc2cc(C)on2)cc1` [MMV1782216], the activity at 25 µM reads like this: under setting [26], 75.9%; under setting [2], 81.9%; under setting [3], 68.5%; under setting [4], 77.2%. For the same compound, the activity at 100 µM is, setting by setting: under setting [27], 87.1%; under setting [28], 83.4%; under setting [29], 74.1%; under setting [30], 104%.

With `OC[C@@H]1CC[C@H](n2cnc3c(O)ncnc32)O1` [MMV637306], the activity at 25 µM is, setting by setting: under setting [1], 91.8%; under setting [2], 101%; under setting [3], 91%; under setting [4], 83.2%. The activity at 100 µM came out at 90.3% under setting [5], 87.3% under setting [6], 80.5% under setting [7] and 91.2% under setting [8].

Take `Cc1ncc([N+](=O)[O-])n1CC(O)CN1CCOCC1` (centres unmarked) [MMV1613562]: the activity at 25 µM runs as follows: under setting [1], 110%; under setting [2], 99.4%; under setting [3], 137%; under setting [4], 94%. Besides, the activity at 100 µM is, setting by setting: under setting [6], 94.6%; under setting [9], 93.7%; under setting [10], 104%. Besides, the Percent fungal survival at 100 µM (replicate 2) was determined as 86.5%.

`O=S(=O)(NCB(O)O)c1cc2c(Cl)ccc(Cl)c2s1` [MMV1580841]: the activity at 25 µM was found to be 69.4% under setting [26], 79.1% under setting [2], 74.7% under setting [3] and 54.3% under setting [4]. In addition, the activity at 100 µM is, setting by setting: under setting [27], 70.2%; under setting [28], 88.2%; under setting [29], 69.4%; under setting [30], 53%.

On to `COc1ccc(SC(=O)N[C@H](CCC(=O)O)C(=O)O)cc1` [MMV1580846], for which the activity at 25 µM under setting [31] came to 85%, the activity at 25 µM under setting [2] is 78.8%, the activity at 25 µM under setting [3] came to 91.4% and the activity at 25 µM under setting [4] worked out at 84.8%. The activity at 100 µM reads like this: under setting [19], 45.7%; under setting [20], -2.83%; under setting [21], 55.8%; under setting [22], 84.3%.

For the compound `CN(C)CCNC(=O)c1cccc2cccnc12` [MMV811071], the activity at 25 µM reads like this: under setting [31], 84.2%; under setting [2], 90.3%; under setting [3], 90.7%; under setting [4], 71.6%. In addition, the activity at 100 µM is 85.2% under setting [19], 79.4% under setting [20], 92.5% under setting [21] and 83.6% under setting [22].

Consider `CC(C)Cn1c(=O)n(C)c(=O)c2c(-c3cncn3C)n(Cc3cccc4ccccc34)nc21` [MMV1581559], for which the activity at 25 µM by setting is: under setting [1], 58.5%; under setting [2], 82.8%; under setting [3], 69.9%; under setting [4], 22.7%. Also, the activity at 100 µM turned out to be 3.57% under setting [6], 1.05% under setting [9] and 3.94% under setting [10]. For the same compound, the Percent fungal survival at 100 µM (replicate 2) was 5.73%.

Consider `O=c1oc2ccc(Br)cc2cc1CSc1ncc[nH]1` [MMV1782105], for which the activity at 25 µM stood at 79.9% under setting [1], 77.1% under setting [2], 83.9% under setting [3] and 78.6% under setting [4]. Also, the activity at 100 µM is, setting by setting: under setting [5], 62.8%; under setting [6], 63.6%; under setting [7], 59.4%; under setting [8], 68.5%.

As for `O=C(O)/C=C/C=C/c1cccc(Oc2cc(Cl)cc(Cl)c2)c1` [MMV1633963], the activity at 25 µM by setting is: (25 uM, mean of replicates, MM55, read-out: Percentage survival at 25um, 25 uM mean) 44.9%; (25 uM, replicate A, MM55, read-out: Percentage survival at 25um, 25 um A) 58.7%; (25 uM, replicate B, MM55, read-out: Percentage survival at 25um, 25 uM B) 58.6%; (25 uM, replicate C, MM55, read-out: Percentage survival at 25um, 25 uM C) 17.4%. The activity at 100 µM stood at 7.42% (mean of replicates, MM55, read-out: Percentage survival at 100um, 100 uM mean); 7.5% (replicate 1, MM55, read-out: Percentage survival at 100um, 100 uM A); 5.34% (replicate 2, MM55, read-out: Percentage survival at 100um, 100 uM A); 9.43% (replicate 3, MM55, read-out: Percentage survival at 100um, 100 uM A).

Regarding `NC1(C(=O)O)CCP(=O)(O)CC1` (centres unmarked) [MMV1593538], the activity at 25 µM is, setting by setting: under setting [2], 56.1%; under setting [23], 68.9%; under setting [24], 67%; under setting [25], 64%. Besides, the activity at 100 µM turned out to be 65.8% under setting [19], 72.6% under setting [20], 66.4% under setting [21] and 58.5% under setting [22].
